# Measurements: ChEMBL document CHEMBL4814023, “The dual inhibition against the activity and expression of tyrosine phosphatase PRL-3 from a rhodanine derivative” (Bioorg Med Chem Lett, 2021)
# The source made the active and inactive calls. The calls are words filed in the database; no cut-off is given here.
# What was measured:
# [1] = molecular target: T1, Protein tyrosine phosphatase type IVA 3 (Homo sapiens, UniProt O75365); experiment: Inhibition of human brain PRL-3 (1 to 168 residues) expressed in Escherichia coli BL21(DE3) cells using DiFMUP as substrate incubated for 1 hr by fluorimetric assay
# T1 sequence (O75365 whole entry, the tested form may be a part): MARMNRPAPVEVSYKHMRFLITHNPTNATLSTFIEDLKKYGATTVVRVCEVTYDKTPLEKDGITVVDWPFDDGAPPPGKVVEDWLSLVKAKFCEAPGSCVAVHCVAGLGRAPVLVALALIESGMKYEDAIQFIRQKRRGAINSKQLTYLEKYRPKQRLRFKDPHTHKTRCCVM
# SW480 [2] = experiment: Antiproliferative activity against human SW480 cells assessed as reduction in cell viability at 1 to 100 uM incubated for 24 to 72 hrs by MTT assay; format: functional, cell-based; settings: dose 1-100 µM, time 24-72 hrs
# HCT-116 [3] = experiment: Antiproliferative activity against human HCT116 cells assessed as reduction in cell viability at 1 to 100 uM incubated for 24 to 72 hrs by MTT assay; format: functional, cell-based; settings: dose 1-100 µM, time 24-72 hrs
# SW480 [4] = experiment: cells; settings: Homo sapiens
# HCT-116 [5] = experiment: cells; settings: Homo sapiens
# SW480 [6] = experiment: Antiproliferative activity against human SW480 cells assessed as reduction in cell viability at 1 to 100 uM by MTT assay; format: functional, cell-based; settings: dose 1-100 µM, time 24-72 hrs, TDE = time-dependent effect
# SW480 [7] = experiment: Induction of apoptosis in human SW480 cells assessed as decrease in number of cells at 5 to 50 uM after 24 hrs by AO/EB staining based fluorescence inverted microscopic method; format: functional, cell-based; settings: dose 5-50 µM
# SW480 [8] = experiment: Induction of apoptosis in human SW480 cells assessed as change in cell shape at 5 to 50 uM after 24 hrs by AO/EB staining based fluorescence inverted microscopic method; format: functional; settings: dose 5-50 µM
# SW480 [9] = experiment: Induction of apoptosis in human SW480 cells assessed as increase in number of cells with red dye at 5 to 50 uM after 24 hrs by AO/EB staining based fluorescence inverted microscopic method; format: functional, cell-based; settings: dose 5-50 µM
# SW480 [10] = experiment: Induction of apoptosis in human SW480 cells assessed as early apoptotic cells at 5 uM incubated for 24 hrs by Annexin V-FITC/propidium iodide staining based flow cytometry analysis (reference value: 0.52%); format: functional
# SW480 [11] = experiment: Induction of apoptosis in human SW480 cells assessed as late apoptotic cells at 5 uM incubated for 24 hrs by Annexin V-FITC/propidium iodide staining based flow cytometry analysis (reference value: 2.58%); format: functional
# SW480 [12] = experiment: Induction of apoptosis in human SW480 cells assessed as early apoptotic cells at 10 uM incubated for 24 hrs by Annexin V-FITC/propidium iodide staining based flow cytometry analysis (reference value: 0.52%); format: functional
# SW480 [13] = experiment: Induction of apoptosis in human SW480 cells assessed as late apoptotic cells at 10 uM incubated for 24 hrs by Annexin V-FITC/propidium iodide staining based flow cytometry analysis (reference value: 2.58%); format: functional
# SW480 [14] = experiment: Induction of apoptosis in human SW480 cells assessed as early apoptotic cells at 25 uM incubated for 24 hrs by Annexin V-FITC/propidium iodide staining based flow cytometry analysis (reference value: 0.52%); format: functional
# SW480 [15] = experiment: Induction of apoptosis in human SW480 cells assessed as late apoptotic cells at 25 uM incubated for 24 hrs by Annexin V-FITC/propidium iodide staining based flow cytometry analysis (reference value: 2.58%); format: functional
# SW480 [16] = experiment: Induction of apoptosis in human SW480 cells assessed as early apoptotic cells at 50 uM incubated for 24 hrs by Annexin V-FITC/propidium iodide staining based flow cytometry analysis (reference value: 0.52%); format: functional
# SW480 [17] = experiment: Induction of apoptosis in human SW480 cells assessed as late apoptotic cells at 50 uM incubated for 24 hrs by Annexin V-FITC/propidium iodide staining based flow cytometry analysis (reference value: 2.58%); format: functional
# SW480 [18] = experiment: Down regulation of PRL-3 expression in human SW480 cells by Western blot analysis; format: functional, cell-based; settings: dose 5-50 µM
# SW480 [19] = experiment: Effect on TCPTP expression in human SW480 cells at 5 to 50 uM by Western blot analysis; format: functional, cell-based; settings: dose 5-50 µM
# SW480 [20] = experiment: Effect on PTP1B expression in human SW480 cells at 5 to 50 uM by Western blot analysis; format: functional, cell-based; settings: dose 5-50 µM
# SW480 [21] = experiment: Effect on SHP-1 expression in human SW480 cells at 5 to 50 uM by Western blot analysis; format: functional, cell-based; settings: dose 5-50 µM
# SW480 [22] = experiment: Effect on SHP-2 expression in human SW480 cells at 5 to 50 uM by Western blot analysis; format: functional, cell-based; settings: dose 5-50 µM
# SW480 [23] = experiment: Antiproliferative activity against human SW480 cells assessed as reduction in cell viability incubated for 24 to 72 hrs by MTT assay; settings: dose 1-100 µM, time 24-72 hrs
# [24] = molecular target: T1, Protein tyrosine phosphatase type IVA 3; experiment: Inhibition of PRL-3 (unknown origin) using DiFMUP as substrate incubated for 1 hr
SMILES,IC50 (SW480 [4]),IC50 (HCT-116 [5]),Activity (SW480 [2]),Activity (HCT-116 [3]),also measured
COc1cc(O)c2c(=O)cc(-c3ccc(OC)c(-c4c(O)cc(O)c5c(=O)cc(-c6ccc(O)cc6)oc45)c3)oc2c1 [GINKGETIN],–,–,–,–,IC50 [1]: 25.8 µM
O=C1NC(=S)S/C1=C\c1cc(Cl)ccc1C(F)(F)F,6.64 µM,74.8 µM,–,–,Activity (SW480 [6]): Tde; Activity (SW480 [7]): Active; Activity (SW480 [8]): Active; Activity (SW480 [9]): Active; Activity (SW480 [10]): 0.92%; Activity (SW480 [11]): 4.13%; Activity (SW480 [12]): 1.47%; Activity (SW480 [13]): 5.91%; Activity (SW480 [14]): 2.9%; Activity (SW480 [15]): 6.23%; Activity (SW480 [16]): 4.77%; Activity (SW480 [17]): 11.72%; Activity (SW480 [18]): Dose-Dependent Effect; Activity (SW480 [19]): inactive; Activity (SW480 [20]): inactive; Activity (SW480 [21]): inactive; Activity (SW480 [22]): inactive; Activity (SW480 [23]): Dose-Dependent Effect
Cn1ccnc1/C=C1\SC(=S)NC1=O,78.7 µM,> 100 µM,inactive,inactive,–
COc1ccc(-c2cc(=O)c3c(O)cc(O)c(-c4cc(-c5cc(=O)c6c(O)cc(OC)cc6o5)ccc4OC)c3o2)cc1 [SCIADOPITISIN],–,–,–,–,IC50 [1]: 46.2 µM
O=C1NC(=S)S/C1=C\c1c(F)cc(F)cc1F,86.1 µM,16.9 µM,inactive,inactive,–

# More lines, main results first:
IC50 (SW480 [4]),IC50 (HCT-116 [5]),SMILES,Activity (SW480 [2]),Activity (HCT-116 [3]),also measured
31.4 µM,> 100 µM,N#Cc1cc(/C=C2\SC(=S)NC2=O)ccc1F,inactive,inactive,–
> 100 µM,100 µM,O=C1NC(=S)S/C1=C\c1ccc(O)c(C(=O)O)c1,inactive,inactive,–
66.7 µM,16.9 µM,O=C1NC(=S)S/C1=C\c1cc(Cl)ccc1Cl,inactive,inactive,IC50 [24]: 26 µM
